“Also recorded” adds a separate entry of the source.
How the values were obtained:
PDGFRβ (N666Y) = molecular target: T1, PDGFRβ (N666Y) (Homo sapiens, UniProt P09619, N666Y); experiment: ELISA analysis of phosphorylated PDGFRβ in OPDKD patient fibroblasts; assay type: cell-based
T1 construct: Fibroblasts from affected individuals and healthy controls were obtained; endogenous in cells; host or cells: fibroblasts from OPDKD patients
Method: Fibroblasts from affected individuals and healthy controls were obtained. Transgenic HeLa cells were transduced with a murine retroviral vector containing the PDGFRβ (NM_002609.3) c.wt, c. 1996A>T (OPDKD) and c.1997A>G (a different activating mutation associated with severe Penttinen syndrome) variants.
In OPDKD, the affected parts of the body (corneas and skin, particular fingers and toes) are all exposed to variable temperatures. ^8 At a typical room temperature (20-22° C.) corneal temperatures lie around 32-34° and fall to around 30° C. as air temperatures reaches 0° C. ^9 We studied the effect of this physiological temperature difference on PDGFRβ auto-phosphorylation and signaling in OPDKD. Cells were either kept at 37° ° C. or incubated overnight at 32° C. […] For ELISA analysis of phosphorylated PDGFRβ, a DuoSet® IC Phospho-PDGFRβ kit (R&D systems) was used. Cell lysates were also subjected to immunoblot analysis with primary antibodies against downstream signaling partners: phospho-Ser473-AKT, phospho-Thr308-AKT, phospho-Tyr70-STAT1, STAT1, phospho-Tyr783-PLCγ1, PLCγ1, phospho-Thr202/Tyr204-MAPK3/ERK1 and MAPK3/ERK1 (all from Cell Signaling Technology). […]

OPDKD patient = experiment: Oral (systemic) imatinib treatment of an OPDKD patient, effect in the eye; assay type: in vivo, human; conditions: systemic imatinib for almost one year, 6 months at maximal recommended dose of 800 mg
AKT = experiment: Immunoblot of downstream signaling partner AKT (phospho-Ser473, phospho-Thr308) in patient fibroblasts; assay type: cell-based, human; conditions: 0.1 μM imatinib
Method: Cells were either kept at 37° ° C. or incubated overnight at 32° C. Cells were then left untreated or treated with 0.1 μM imatinib (STI571, Selleckchem) for 6 hours. For ELISA analysis of phosphorylated PDGFRβ, a DuoSet® IC Phospho-PDGFRβ kit (R&D systems) was used. Cell lysates were also subjected to immunoblot analysis with primary antibodies against downstream signaling partners: phospho-Ser473-AKT, phospho-Thr308-AKT, phospho-[MUT]-STAT1, STAT1, phospho-[MUT]-PLCγ1, PLCγ1, phospho-Thr202/Tyr204-MAPK3/ERK1 and MAPK3/ERK1 (all from Cell Signaling Technology).

T1 sequence (P09619 33-1106 N666Y): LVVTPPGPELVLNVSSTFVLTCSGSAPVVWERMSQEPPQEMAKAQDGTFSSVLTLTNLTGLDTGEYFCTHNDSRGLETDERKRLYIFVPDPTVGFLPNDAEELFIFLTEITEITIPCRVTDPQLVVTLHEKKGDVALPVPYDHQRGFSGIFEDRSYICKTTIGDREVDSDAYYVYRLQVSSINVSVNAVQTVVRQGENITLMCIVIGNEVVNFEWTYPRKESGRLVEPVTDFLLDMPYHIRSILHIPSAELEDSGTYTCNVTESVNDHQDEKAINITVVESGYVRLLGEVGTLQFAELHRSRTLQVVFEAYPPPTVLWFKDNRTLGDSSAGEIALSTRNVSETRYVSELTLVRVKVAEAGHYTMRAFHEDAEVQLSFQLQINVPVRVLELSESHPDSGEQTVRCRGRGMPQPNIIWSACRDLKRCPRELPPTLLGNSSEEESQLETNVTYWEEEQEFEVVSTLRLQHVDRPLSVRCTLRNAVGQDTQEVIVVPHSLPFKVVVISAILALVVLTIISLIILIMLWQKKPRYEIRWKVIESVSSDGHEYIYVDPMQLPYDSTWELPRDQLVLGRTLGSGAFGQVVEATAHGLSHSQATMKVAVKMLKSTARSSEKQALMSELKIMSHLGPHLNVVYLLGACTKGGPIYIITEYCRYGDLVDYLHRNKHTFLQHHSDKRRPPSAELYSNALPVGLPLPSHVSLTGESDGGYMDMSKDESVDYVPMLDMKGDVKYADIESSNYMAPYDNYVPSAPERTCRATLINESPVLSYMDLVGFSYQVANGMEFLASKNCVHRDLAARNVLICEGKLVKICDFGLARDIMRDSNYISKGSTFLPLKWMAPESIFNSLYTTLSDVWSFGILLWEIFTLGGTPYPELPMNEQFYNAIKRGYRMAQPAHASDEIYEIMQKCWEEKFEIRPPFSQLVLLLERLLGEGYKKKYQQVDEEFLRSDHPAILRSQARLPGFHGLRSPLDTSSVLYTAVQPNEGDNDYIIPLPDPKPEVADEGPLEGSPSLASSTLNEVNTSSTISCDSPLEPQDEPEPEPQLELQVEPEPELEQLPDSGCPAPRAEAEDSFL

sensitivity of OPDKD fibroblasts compared with Penttinen fibroblasts (PDGFRβ (N666Y); OPDKD (N666Y) vs Penttinen (N666S) fibroblasts): less sensitive
effect on levels of P-PDGFRβ and downstream proteins (PDGFRβ (N666Y); OPDKD fibroblasts, imatinib, 6 hours): clear, dose dependent effect
levels of phosphorylated PDGFRβ (PDGFRβ (N666Y); patient fibroblasts, high doses of imatinib (1 μM)): normalization
SMILES: Cc1ccc(NC(=O)c2ccc(CN3CCN(C)CC3)cc2)cc1Nc1nccc(-c2cccnc2)n1 [imatinib]
effect of the drug on the eye of an OPDKD patient (OPDKD patient): no effect; also recorded: without effect
phosphorylation of Ser473 and Thr308 AKT (AKT): Normalization

Reference: patent US20240216370A1, “TREATMENT OF CORNEAL VASCULARISATION” (VESTLANDETS INNOVASJONSSELSKAP AS, priority 2020, published 2024)
